≈ marks a conversion by molar mass, not a printed value.
Columns and labels:
E.coli SM 1411 = test: Determination of antimicrobial activity (MIC, broth microdilution); format: cell-based; settings: IsoSensitest broth, inoculum 10^4 cells per mL, 16 h at 37 °C; unit assumed
Experimental: (§1) Minimal inhibitory concentrations (MICs) of compounds were determined by broth microdilution in IsoSensitest broth (Oxoid, Basingstoke, UK) using an inoculum of 10^4 cells per mL for E. coli or 10^6 cells per mL for S. aureus. The compounds under investigation were prepared in a 2-fold dilution series in 50% dimethyl sulfoxide (Sigma-Aldrich, Dorset, UK). Microwell plates with 96 wells (Nunc, Fisher Scientific, Loughborough, UK) containing the antimicrobial agent and bacterial suspension were incubated for 16 h at 37 °C in a Spectramax 384 plus microwell plate reader (Molecular Devices, Abingdon, UK), running SOFTmax PRO 3.1.1 software. Optical density readings (600 nm) were taken at 10 min intervals. Plates were shaken for 30 s before each reading. The MIC was taken as the lowest concentration of antimicrobial agent that prevented growth. The invention is further described in connection with the following non-limiting examples: […]

E.coli 1411 = test: as above; format: cell-based; settings: IsoSensitest broth, inoculum 10^4 cells per mL, 16 h at 37 °C; unit assumed
Experimental: as §1

S.aureus 8325-4 = test: as above; format: cell-based; settings: IsoSensitest broth, inoculum 10^6 cells per mL, 16 h at 37 °C; unit assumed
Experimental: as §1

DdlB = DdlB (Escherichia coli, UniProt P07862); test: Determination of inhibitory activity on DdlB (colorimetric malachite green method); format: biochemical, E. coli; settings: 37 °C, 700 µM D-Ala, 500 µM ATP, 30 min incubation, seven inhibitor concentrations
Experimental: The D-Ala-adding activity of DdlB ligase was monitored by the detection of orthophosphate generated during the reaction based on the colorimetric malachite green method (Walsh, A. et al. J Bacteriol. 1999, 181: 5395). […] All compounds were soluble in the assay mixture containing 5% DMSO. After 30 min of incubation, 100 µL Biomol® reagent was added. After 5 min, absorbance was read at 650 nm. Residual activity was calculated with respect to a similar assay without inhibitor. IC50 constants were determined by measuring residual activity at seven different inhibitor concentrations and represent the concentration of inhibitors where RA is 50%.

O=C(N=NC(=O)NCc1ccccn1)NCCCl
MIC E.coli SM 1411 (E.coli SM 1411): > 256 µg/mL
MIC E.coli 1411 (E.coli 1411): > 256 µg/mL
MIC S.aureus 8325-4 (S.aureus 8325-4): > 256 µg/mL
IC50 (DdlB): 119 µM

O=C(N=NC(=O)NCc1ccccn1)NCc1ccccn1
MIC E.coli SM 1411 (E.coli SM 1411): > 256 µg/mL
MIC E.coli 1411 (E.coli 1411): > 256 µg/mL
MIC S.aureus 8325-4 (S.aureus 8325-4): > 256 µg/mL
IC50 (DdlB): 158 µM

CC(C)c1ccc(NC(=O)N=NC(=O)NCCCl)cc1
MIC E.coli SM 1411 (E.coli SM 1411): > 256 µg/mL
MIC E.coli 1411 (E.coli 1411): > 256 µg/mL
MIC S.aureus 8325-4 (S.aureus 8325-4): > 256 µg/mL
IC50 (DdlB): 49 µM

CCC(C)c1ccc(NC(=O)N=NC(=O)NCCCl)cc1 (stereo not shown)
MIC E.coli SM 1411 (E.coli SM 1411): > 256 µg/mL
MIC E.coli 1411 (E.coli 1411): > 256 µg/mL
MIC S.aureus 8325-4 (S.aureus 8325-4): > 256 µg/mL
IC50 (DdlB): 25 µM

O=C(N=NC(=O)NCc1cccnc1)NCc1cccnc1
MIC E.coli SM 1411 (E.coli SM 1411): > 256 µg/mL
MIC E.coli 1411 (E.coli 1411): > 256 µg/mL
MIC S.aureus 8325-4 (S.aureus 8325-4): > 256 µg/mL
IC50 (DdlB): 123 µM

O=C(N=NC(=O)NCC(Cl)(Cl)Cl)NCC(Cl)(Cl)Cl
MIC E.coli SM 1411 (E.coli SM 1411): > 256 µg/mL
MIC E.coli 1411 (E.coli 1411): > 256 µg/mL
MIC S.aureus 8325-4 (S.aureus 8325-4): > 256 µg/mL
IC50 (DdlB): 187 µM

O=C(/N=N/C(=O)NCCCl)NCCCl
MIC E.coli SM 1411 (E.coli SM 1411): > 256 µg/mL
MIC E.coli 1411 (E.coli 1411): > 256 µg/mL
MIC S.aureus 8325-4 (S.aureus 8325-4): > 256 µg/mL
IC50 (DdlB): 133 µM

CC(C)(C)c1ccc(NC(=O)N=NC(=O)NCCCl)cc1
MIC E.coli SM 1411 (E.coli SM 1411): > 256 µg/mL
MIC E.coli 1411 (E.coli 1411): > 256 µg/mL
MIC S.aureus 8325-4 (S.aureus 8325-4): > 256 µg/mL
IC50 (DdlB): 37 µM

O=C(N=NC(=O)Nc1ccccc1)NCc1ccccn1
MIC E.coli SM 1411 (E.coli SM 1411): 64 µg/mL (≈ 226 µM)
MIC E.coli 1411 (E.coli 1411): 64 µg/mL (≈ 226 µM)
MIC S.aureus 8325-4 (S.aureus 8325-4): 64 µg/mL (≈ 226 µM)
IC50 (DdlB): 111 µM

O=C(N=NC(=O)Nc1cccc(Cl)c1)NCc1cccnc1
MIC E.coli SM 1411 (E.coli SM 1411): 64 µg/mL (≈ 201 µM)
MIC E.coli 1411 (E.coli 1411): 64 µg/mL (≈ 201 µM)
MIC S.aureus 8325-4 (S.aureus 8325-4): 256 µg/mL (≈ 806 µM)
IC50 (DdlB): 15 µM

CC(NC(=O)N=NC(=O)Nc1ccccc1)c1ccccc1 (stereo not shown)
MIC E.coli SM 1411 (E.coli SM 1411): > 256 µg/mL
MIC E.coli 1411 (E.coli 1411): > 256 µg/mL
MIC S.aureus 8325-4 (S.aureus 8325-4): > 256 µg/mL
IC50 (DdlB): 41 µM

O=C(N=NC(=O)Nc1ccccc1)NCc1cccnc1 [drawing 18]
MIC E.coli SM 1411 (E.coli SM 1411): > 256 µg/mL
MIC E.coli 1411 (E.coli 1411): > 256 µg/mL
MIC S.aureus 8325-4 (S.aureus 8325-4): > 256 µg/mL
IC50 (DdlB): 76 µM

O=C(N=NC(=O)Nc1ccccc1)NCc1cccnc1 [drawing 22]
MIC E.coli SM 1411 (E.coli SM 1411): 64 µg/mL (≈ 226 µM)
MIC E.coli 1411 (E.coli 1411): 64 µg/mL (≈ 226 µM)
MIC S.aureus 8325-4 (S.aureus 8325-4): 128 µg/mL (≈ 452 µM)
IC50 (DdlB): 36 µM

Reference: patent EP1889831A2, “Diazenedicarboxamides as inhibitors of D-alanine: D-alanine ligase (Ddl)” (University of Ljubljana, priority 2006, dated 2008)
